In one series the target is P-glycoprotein (Homo sapiens, UniProt P08183). It counts as binding. Particulars: for inhibition at 10 μM / inhibition at 20 μM: human, pH 7.5.
In a further series the target is human P-gp (Homo sapiens, UniProt P08183). Description: Calcein-AM efflux. The format is cell-based.
Another series deals with P-gp. Particulars: cited from earlier work.
For series [1] the following is noted: ongoing Phase III clinical trials; cited from earlier work.

Each structure is given as a SMILES string. pIC50: −log10 of the molar value.

P-glycoprotein, sequence (P08183 whole entry): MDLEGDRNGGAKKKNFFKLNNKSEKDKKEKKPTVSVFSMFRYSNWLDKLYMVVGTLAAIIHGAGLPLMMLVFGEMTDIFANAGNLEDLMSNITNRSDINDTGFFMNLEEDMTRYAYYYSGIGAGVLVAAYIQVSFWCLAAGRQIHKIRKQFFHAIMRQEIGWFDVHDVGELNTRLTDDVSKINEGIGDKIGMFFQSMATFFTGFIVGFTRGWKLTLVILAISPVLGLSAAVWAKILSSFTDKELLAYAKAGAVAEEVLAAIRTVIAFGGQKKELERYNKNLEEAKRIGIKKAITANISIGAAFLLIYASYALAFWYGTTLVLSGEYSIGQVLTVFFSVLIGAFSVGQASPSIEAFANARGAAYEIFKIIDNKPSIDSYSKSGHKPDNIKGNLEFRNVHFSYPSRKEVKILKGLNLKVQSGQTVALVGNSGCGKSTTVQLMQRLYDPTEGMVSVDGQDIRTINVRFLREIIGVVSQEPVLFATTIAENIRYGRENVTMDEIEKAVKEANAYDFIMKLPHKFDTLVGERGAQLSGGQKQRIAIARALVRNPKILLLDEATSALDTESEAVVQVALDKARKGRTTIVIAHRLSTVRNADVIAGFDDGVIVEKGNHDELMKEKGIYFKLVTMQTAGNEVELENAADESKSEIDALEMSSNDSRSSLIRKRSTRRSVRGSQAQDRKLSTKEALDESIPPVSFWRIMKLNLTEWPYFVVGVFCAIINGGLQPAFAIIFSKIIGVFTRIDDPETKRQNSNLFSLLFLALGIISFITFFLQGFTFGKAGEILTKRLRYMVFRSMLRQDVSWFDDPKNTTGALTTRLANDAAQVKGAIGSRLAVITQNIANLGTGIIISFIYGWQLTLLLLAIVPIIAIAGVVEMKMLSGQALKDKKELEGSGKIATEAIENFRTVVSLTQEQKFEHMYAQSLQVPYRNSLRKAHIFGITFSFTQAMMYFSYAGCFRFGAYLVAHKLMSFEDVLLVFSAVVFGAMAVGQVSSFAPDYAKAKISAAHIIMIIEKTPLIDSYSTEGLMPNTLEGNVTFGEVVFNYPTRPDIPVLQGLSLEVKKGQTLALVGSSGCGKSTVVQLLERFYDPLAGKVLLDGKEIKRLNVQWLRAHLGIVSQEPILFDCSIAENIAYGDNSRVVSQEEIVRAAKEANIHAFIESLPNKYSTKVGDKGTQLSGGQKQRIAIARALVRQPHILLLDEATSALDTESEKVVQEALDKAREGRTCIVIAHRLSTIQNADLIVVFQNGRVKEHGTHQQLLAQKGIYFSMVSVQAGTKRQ
human P-gp, sequence (P08183 whole entry): as above

One may read the inhibition as the change of the read-out against control, counted positive when it falls. Higher therefore signals a response far below the control. `COc1ccc(CNC(=O)c2csc([C@@H](NC(=O)c3csc([C@@H](NC(=O)OC(C)(C)C)C(C)C)n3)C(C)C)n2)c(OC)c1` [Compound 23, [1-(4-{1-[4-(2,4-Dimethoxybenzylcarbamoyl)thiazol-2-yl]-(S)-2-methylpropylcarbamoyl}thiazol-2-yl)-(S)-2-methylpropyl]carbamic acid tert-butyl ester] had an inhibition at 10 μM at P-glycoprotein of 95%.

With `CCOC(=O)c1csc([C@@H](NC(=O)OC(C)(C)C)C(C)C)n1` [Compound 5, (S)-2-(1-tert-Butoxycarbonylamino-2-methylpropyl)thiazole-4-carboxylic acid ethyl ester], the inhibition at 20 μM against P-glycoprotein turned out to be 20%.

On to `CC(C)[C@H](N)c1nc(C(=O)O)cs1` [Compound 8, (S)-2-(1-Amino-2-methylpropyl)thiazole-4-carboxylic acid], for which, on P-glycoprotein, the inhibition at 20 μM was less than 10%.

The molecule `CC(C)[C@H](NC(=O)OC(C)(C)C)c1nc(C(=O)O)cs1` [Compound 6, (S)-2-(1-tert-Butoxycarbonylamino-2-methylpropyl)thiazole-4-carboxylic acid] had an inhibition at 20 μM at P-glycoprotein of less than 10%.

`CCOC(=O)c1csc([C@@H](NC(=O)c2csc([C@@H](NC(=O)c3csc([C@@H](N)C(C)C)n3)C(C)C)n2)C(C)C)n1` [Compound 15, (S)-2-(1-{[2-(1-{[2-(1-Amino-2-methylpropyl)thiazole-4-carbonyl]amino}-(S)-2-methylpropyl)thiazole-4-carbonyl]amino}-(S)-2-methylpropyl)thiazole-4-carboxylic acid ethyl ester] came in with an inhibition at 10 μM at P-glycoprotein of 91%.

`CCOC(=O)c1csc([C@@H](N)C(C)C)n1` [Compound 7, (S)-2-(1-Amino-2-methylpropyl)thiazole-4-carboxylic acid ethyl ester] gave an inhibition at 20 μM against P-glycoprotein of less than 10%.

For `CCOC(=O)c1csc([C@@H](NC(=O)c2csc([C@@H](NC(=O)c3csc([C@@H](NC(=O)c4csc([C@@H](NC(=O)OC(C)(C)C)C(C)C)n4)C(C)C)n3)C(C)C)n2)C(C)C)n1` [Compound 18, (S)-2-(1-{[2-(1-{[2-(1-{[2-(1-tert-Butoxycarbonylamino-2-methylpropyl)thiazole-4-carbonyl]amino}-(S)-2-methylpropyl)thiazole-4-carbonyl]amino}-(S)-2-methylpropyl)thiazole-4-carbonyl]amino}-(S)-2-methylpropyl)thiazole-4-carboxylic acid ethyl ester], the “Decrease of cell based inhibitory activity as compared to homolog 13” value at human P-gp (10 μM, transport assays) is recorded as 1.6 fold. The molecule further displayed an inhibition at 10 μM against P-glycoprotein of 99%.

As to `CC(C)[C@@H]1NC(=O)c2csc(n2)[C@H](C(C)C)NC(=O)c2csc(n2)[C@H](C(C)C)NC(=O)c2csc(n2)[C@H](C(C)C)NC(=O)c2csc1n2` [Compound 20, Cyclic Tetramer], the “[125I]-IAAP % Inhibition” value at P-glycoprotein (tested conc. 10 μM, 4-6 nM [125I]-IAAP, High-Five insect cell membranes) is reported as 95%.

Consider `CC(C)[C@@H]1NC(=O)c2c[se]c(n2)[C@H](C(C)C)NC(=O)c2c[se]c(n2)[C@H](C(C)C)NC(=O)c2c[se]c1n2` [QZ59Se-SSS], for which the “Potency relative to corresponding QZ59Se-RRR isomer” value in the series with P-gp is reported as “four-fold potent”.

As usually defined, the pIC50 is the IC50 on a negative log10 scale, so that one unit is a factor of ten. As for `CCOC(=O)c1csc([C@@H](NC(=O)c2csc([C@@H](NC(=O)OC(C)(C)C)C(C)C)n2)C(C)C)n1` [Compound 9, (S)-2-(1-{[2-(1-tert-Butoxycarbonylamino-2-methylpropyl)thiazole-4-carbonyl]amino}-(S)-2-methylpropyl)thiazole-4-carboxylic acid ethyl ester], the pIC50 on human P-gp was 4.70. At P-glycoprotein, the inhibition at 20 μM was 87%.

With `CCOC(=O)c1csc([C@@H](NC(=O)c2csc([C@@H](NC(=O)c3csc([C@@H](NC(=O)OC(C)(C)C)C(C)C)n3)C(C)C)n2)C(C)C)n1` [Compound 13, (S)-2-(1-{[2-(1-{[2-(1-tert-Butoxycarbonylamino-2-methylpropyl)thiazole-4-carbonyl]amino}-(S)-2-methylpropyl)thiazole-4-carbonyl]amino}-(S)-2-methylpropyl) thiazole-4-carboxylic acid ethyl ester], the inhibition at 10 μM at P-glycoprotein came to 91%.

Take `CC(C)[C@H](NC(=O)OC(C)(C)C)c1nc(C(=O)N[C@H](c2nc(C(=O)O)cs2)C(C)C)cs1` [Compound 10, (S)-2-(1-{[2-(1-tert-Butoxycarbonylamino-2-methylpropyl)thiazole-4-carbonyl]amino}-(S)-2-methylpropyl)thiazole-4-carboxylic acid]: the inhibition at 20 μM at P-glycoprotein is less than 10%.

For `C/C=C/C[C@@H](C)C(=O)[C@H]1C(=O)N[C@@H](C(C)C)C(=O)N(C)CC(=O)N(C)[C@@H](CC(C)C)C(=O)N[C@@H](C(C)C)C(=O)N(C)[C@@H](CC(C)C)C(=O)N[C@@H](C)C(=O)N[C@H](C)C(=O)N(C)[C@@H](CC(C)C)C(=O)N(C)[C@@H](CC(C)C)C(=O)N(C)[C@@H](C(C)C)C(=O)N1C` [valspodar], the Oral bioavailability result in series [1] was “very restricted oral bioavailability”.

On P-glycoprotein, `CC(C)[C@H](NC(=O)OC(C)(C)C)c1nc(C(=O)N[C@H](c2nc(C(=O)N[C@H](c3nc(C(=O)O)cs3)C(C)C)cs2)C(C)C)cs1` [Compound 14, (S)-2-(1-{[2-(1-{[2-(1-tert-Butoxycarbonylamino-2-methylpropyl)thiazole-4-carbonyl]amino}-(S)-2-methylpropyl)thiazole-4-carbonyl]amino}-(S)-2-methylpropyl)thiazole-4-carboxylic acid] returned an inhibition at 10 μM of 60%.

`CC(C)[C@H](N)c1nc(C(=O)N[C@H](c2nc(C(=O)O)cs2)C(C)C)cs1` [Compound 12, (S)-2-(1-{[2-(1-Amino-2-methylpropyl)thiazole-4-carbonyl]amino}-(S)-2-methylpropyl)thiazole-4-carboxylic acid]: the inhibition at 20 μM at P-glycoprotein is 23%.

In turn, `CCOC(=O)c1csc([C@@H](NC(=O)c2csc([C@@H](N)C(C)C)n2)C(C)C)n1` [Compound 11, (S)-2-(1-{[2-(1-Amino-2-methylpropyl)thiazole-4-carbonyl]amino}-(S)-2-methylpropyl)thiazole-4-carboxylic acid ethyl ester] returned an inhibition at 20 μM against P-glycoprotein of 87%.
